Values of other authors, collected in patent US20190038644A1, “PREPARATION FOR NASAL-NASOPHARYNGEAL TREATMENT” (priority 2017, published 2019).

Columns and labels:
[1] = test system: E. coli adherence to human uroepithelial cells; conditions: addition of 2.5% D-mannose to E. coli uroepithelial cell suspensions; even when epithelial cells highly receptive
[2] = test system: E. Coli and other bacteria; conditions: versus fructose in cranberries
[3] = not metabolized like other sugars, does not alter blood sugar levels

In the case of `O=C[C@@H](O)[C@@H](O)[C@H](O)[C@H](O)CO` [D-mannose], the “inhibition of adherence of E. coli to uroepithelial cells” value [1] is given as “completely inhibited adherence”, the “activity in inhibiting adherence relative to the fructose in cranberries” value [2] is given as 10 times and the “entry into blood stream” value [3] is given as “does not enter the blood stream”.
